Source: PubChem BioAssay (NCI)
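A five-concentration, 48-hour dose response in 96-well plates underlies each endpoint, interpolated linearly between surrounding concentrations. At the GI50, growth is halved. TGI: concentration producing complete growth inhibition.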

Tests used:
Assay in all cases: DTP human tumour cell line panel, 48 h
HS 578T breast = system: HS 578T breast
SF-295 CNS = system: SF-295 CNS
PC-3 prostate = system: PC-3 prostate
U251 CNS = system: U251 CNS
SK-MEL-5 melanoma = system: SK-MEL-5 melanoma
KM12 colon = system: KM12 colon
OVCAR-5 ovarian = system: OVCAR-5 ovarian
NCI-H226 lung = system: NCI-H226 lung
IGROV1 ovarian = system: IGROV1 ovarian
SK-MEL-2 melanoma = system: SK-MEL-2 melanoma
NCI-H522 lung = system: NCI-H522 lung
SK-OV-3 ovarian = system: SK-OV-3 ovarian
EKVX NSCLC = system: EKVX NSCLC
T-47D breast = system: T-47D breast
RXF 393 renal = system: RXF 393 renal
SW-620 colon = system: SW-620 colon
A549 NSCLC = system: A549 NSCLC
MALME-3M melanoma = system: MALME-3M melanoma
SF-268 CNS = system: SF-268 CNS
COLO 205 colon = system: COLO 205 colon
UACC-257 melanoma = system: UACC-257 melanoma
HL-60(TB) leukemia = system: HL-60(TB) leukemia
HT29 colon = system: HT29 colon
UO-31 renal = system: UO-31 renal
MDA-MB-231 breast = system: MDA-MB-231 breast
OVCAR-8 ovarian = system: OVCAR-8 ovarian
HCT-15 colon = system: HCT-15 colon
MOLT-4 leukemia = system: MOLT-4 leukemia
BT-549 breast = system: BT-549 breast
SR leukemia = system: SR leukemia
SF-539 CNS = system: SF-539 CNS
HCT-116 colon = system: HCT-116 colon
HOP-62 NSCLC = system: HOP-62 NSCLC
LOX IMVI melanoma = system: LOX IMVI melanoma
TK-10 renal = system: TK-10 renal
NCI-H23 lung = system: NCI-H23 lung
OVCAR-3 ovarian = system: OVCAR-3 ovarian
SN12C renal = system: SN12C renal
ACHN renal = system: ACHN renal
SNB-19 CNS = system: SNB-19 CNS
NCI-H460 lung = system: NCI-H460 lung
M14 melanoma = system: M14 melanoma
HCC-2998 colon = system: HCC-2998 colon
HOP-92 NSCLC = system: HOP-92 NSCLC
K-562 leukemia = system: K-562 leukemia
A498 renal = system: A498 renal
MDA-MB-468 breast = system: MDA-MB-468 breast
OVCAR-4 ovarian = system: OVCAR-4 ovarian
CCRF-CEM leukemia = system: CCRF-CEM leukemia
MCF7 breast = system: MCF7 breast
786-0 renal = system: 786-0 renal
DU-145 prostate = system: DU-145 prostate
UACC-62 melanoma = system: UACC-62 melanoma
RPMI-8226 leukemia = system: RPMI-8226 leukemia
CAKI-1 renal = system: CAKI-1 renal
SK-MEL-28 melanoma = system: SK-MEL-28 melanoma

COc1ccccc1Nc1nnc(-c2c[nH]c3ccccc23)o1
GI50 (HS 578T breast): 2.2 µM | TGI (HS 578T breast): 15.6 µM | GI50 (SF-295 CNS): 0.857 µM | TGI (SF-295 CNS): 5.69 µM | GI50 (PC-3 prostate): 2.86 µM | TGI (PC-3 prostate): > 100 µM | GI50 (U251 CNS): 2.43 µM | TGI (U251 CNS): 16.4 µM | GI50 (SK-MEL-5 melanoma): 2.02 µM | TGI (SK-MEL-5 melanoma): 5.81 µM | GI50 (KM12 colon): 2.33 µM | TGI (KM12 colon): 16.5 µM | GI50 (OVCAR-5 ovarian): 4.99 µM | TGI (OVCAR-5 ovarian): 32.2 µM | GI50 (NCI-H226 lung): 4.69 µM | TGI (NCI-H226 lung): > 100 µM | GI50 (IGROV1 ovarian): 0.682 µM | TGI (IGROV1 ovarian): 37.9 µM | GI50 (SK-MEL-2 melanoma): 0.82 µM | TGI (SK-MEL-2 melanoma): 2.82 µM | GI50 (NCI-H522 lung): 0.476 µM | TGI (NCI-H522 lung): 3.68 µM | GI50 (SK-OV-3 ovarian): 1.93 µM | TGI (SK-OV-3 ovarian): 25.4 µM | GI50 (EKVX NSCLC): 2.63 µM | TGI (EKVX NSCLC): > 100 µM | GI50 (T-47D breast): 2.87 µM | TGI (T-47D breast): 25 µM | GI50 (RXF 393 renal): 2.09 µM | TGI (RXF 393 renal): 8.14 µM | GI50 (SW-620 colon): 0.598 µM | TGI (SW-620 colon): > 100 µM | GI50 (A549 NSCLC): 2.99 µM | TGI (A549 NSCLC): > 100 µM | GI50 (MALME-3M melanoma): 0.816 µM | TGI (MALME-3M melanoma): 15 µM | GI50 (SF-268 CNS): 3.77 µM | TGI (SF-268 CNS): > 100 µM | GI50 (COLO 205 colon): 1.01 µM | TGI (COLO 205 colon): 11.2 µM | GI50 (UACC-257 melanoma): 4.95 µM | TGI (UACC-257 melanoma): 32.4 µM | GI50 (HL-60(TB) leukemia): 0.625 µM | TGI (HL-60(TB) leukemia): 10.2 µM | GI50 (HT29 colon): 0.634 µM | TGI (HT29 colon): 14.6 µM | GI50 (UO-31 renal): 3.65 µM | TGI (UO-31 renal): 55 µM | GI50 (MDA-MB-231 breast): 2.91 µM | TGI (MDA-MB-231 breast): 24.6 µM | GI50 (OVCAR-8 ovarian): 2.87 µM | TGI (OVCAR-8 ovarian): 26.2 µM | GI50 (HCT-15 colon): 0.451 µM | TGI (HCT-15 colon): 21.8 µM | GI50 (MOLT-4 leukemia): 0.716 µM | TGI (MOLT-4 leukemia): 14.4 µM | GI50 (BT-549 breast): 3.07 µM | TGI (BT-549 breast): 26 µM | GI50 (SR leukemia): 0.395 µM | TGI (SR leukemia): 46.4 µM | GI50 (SF-539 CNS): 1.63 µM | TGI (SF-539 CNS): 4.76 µM | GI50 (HCT-116 colon): 5.38 µM | TGI (HCT-116 colon): 54 µM | GI50 (HOP-62 NSCLC): 3.11 µM | TGI (HOP-62 NSCLC): 40 µM | GI50 (LOX IMVI melanoma): 2.21 µM | TGI (LOX IMVI melanoma): 18.2 µM | GI50 (TK-10 renal): 7.28 µM | TGI (TK-10 renal): > 100 µM | GI50 (NCI-H23 lung): 1.89 µM | TGI (NCI-H23 lung): 16.6 µM | GI50 (OVCAR-3 ovarian): 1.59 µM | TGI (OVCAR-3 ovarian): 9.55 µM | GI50 (SN12C renal): 3.01 µM | TGI (SN12C renal): 16.4 µM | GI50 (ACHN renal): 5.4 µM | TGI (ACHN renal): 45.7 µM | GI50 (SNB-19 CNS): 3.14 µM | TGI (SNB-19 CNS): > 100 µM | GI50 (NCI-H460 lung): 1.66 µM | TGI (NCI-H460 lung): 12.8 µM | GI50 (M14 melanoma): 0.982 µM | TGI (M14 melanoma): 22.7 µM | GI50 (HCC-2998 colon): 2.55 µM | TGI (HCC-2998 colon): 16.2 µM | GI50 (HOP-92 NSCLC): 4.55 µM | TGI (HOP-92 NSCLC): 40.6 µM | GI50 (K-562 leukemia): 0.343 µM | TGI (K-562 leukemia): 79.3 µM | GI50 (A498 renal): 17.8 µM | TGI (A498 renal): 53.9 µM | GI50 (MDA-MB-468 breast): 0.644 µM | TGI (MDA-MB-468 breast): 3.37 µM | GI50 (OVCAR-4 ovarian): 7.54 µM | TGI (OVCAR-4 ovarian): > 100 µM | GI50 (CCRF-CEM leukemia): 0.708 µM | TGI (CCRF-CEM leukemia): 21 µM | GI50 (MCF7 breast): 0.614 µM | TGI (MCF7 breast): 17.5 µM | GI50 (786-0 renal): 5.07 µM | TGI (786-0 renal): 22.7 µM | GI50 (DU-145 prostate): 4.26 µM | TGI (DU-145 prostate): > 100 µM | GI50 (UACC-62 melanoma): 1.39 µM | TGI (UACC-62 melanoma): 14.5 µM | GI50 (RPMI-8226 leukemia): 2.25 µM | TGI (RPMI-8226 leukemia): 16.9 µM | GI50 (CAKI-1 renal): 0.861 µM | TGI (CAKI-1 renal): 80 µM | GI50 (SK-MEL-28 melanoma): 4.48 µM | TGI (SK-MEL-28 melanoma): 24 µM
